What was measured:
[1] = target: T1, cAMP pathway of MOR receptor (Homo sapiens, UniProt P35372); test: cell-based; conditions: cAMP Hunter HEK293 cells, forskolin-induced cAMP; read-out: EC50 of cAMP levels affected by agonistic effect on MOR
T1 construct: host or cells: HEK293 (cAMP Hunter cell line)

[2] = target: T2, β-arrestin signaling pathway of MOR (Homo sapiens, UniProt P35372); test: cell-based; conditions: PathHunter HEK293 cells, relative to endorphin MAX control
T2 construct: host or cells: HEK293 (PathHunter cell line)

SD rats = test: Respiratory depression in rats, arterial blood gas PCO2; type: in vivo
[3] = system: rat surgical incision injury model; test: Rat surgical incision injury model, von Frey paw withdrawal threshold; type: in vivo, SD rats; conditions: rats, intravenous 0.3 mg/kg
Text: 8-week-old male SD rats weighing 200 g-300 g were used as experimental animals to determine the effect of the compound of Example H02, the compound of Example H04, the compound of Example H10, the compound of Example H16, the compound of Example H17, the compound of Example H18, the compound of Example H21 and the compound of Example H24 on surgical pain in rats after intravenous administration. The analgesic effect of the compounds was discussed.
A certain amount of the compounds or TRV130 (MCE, 15150) was weighed, and dissolved in ethanol/castor oil/water=10/10/80 as a clear and transparent solution.
Three days after the rats were acclimatized to the experimental environment, the preoperative base value was determined, and followed by the surgical pain operation described below, about 24 hours after the surgery, the basic value was measured before administration on all animals, and mechanically hypersensitive animals (the paw withdrawal threshold (PWT) was less than 5 g) was randomly assigned to each administration group according to PWT. The pain threshold was determined 30 minutes and 60 minutes after intravenous administration of the positive drug TRV130 or each compound of the present invention (at a dose of 0.3 mg/kg).
The surgical procedure was performed aseptically, and the surgical instruments (scissors, tweezers, scalpels, surgical cotton and sutures) were sterilized before surgery. The animals were anesthetized with sodium pentobarbital (50 mg/kg, injected intraperitoneally), and the toes of the animals were squeezed to confirm that the animals were completely anesthetized before surgery. From the position of 0.5 cm away from the heel, an incision about 1 cm was made in the longitudinal direction of the toe. After cutting the skin, the musculus flexor digitorum brevis was raised and a blunt injury was caused longitudinally. After pressing to stop bleeding, the wound was sutured. When the animal was completely awake (free to move), the animal was put back into the cage (the reference of the construction of surgical pain model: Timothy J. Brennan, Erik P. Vandermeulen, G. F. Gebhart. Characterization of a rat model of incisional pain. Pain, 64(1996):493-501).
An up-down method was used for the determination of pain sensitivity. The mechanical pain results were expressed as animal paw withdrawal response threshold (PWT). The rat was placed separately in a plexiglass box with a mesh at the bottom of the box to ensure that the rat's feet could be tested. The rat was acclimatized for 15 minutes before the test, and after the acclimatization, the test fiber (von frey fiber, West coast) was used to test in the middle part of the hind foot of the rat. The test fibers included 8 test strengths: 3.61 (0.4 g), 3.84 (0.6 g), 4.08 (1 g), 4.31 (2 g), 4.56 (4 g), 4.74 (6 g), 4.93 (8 g), and 5.18 (15 g). During the test, the test fiber was pressed vertically against the skin and a force was applied to bend the fiber for 6-8 seconds, at an interval of 5 seconds between each test. During the test, the animal's rapid withdrawal was recorded as a pain response. When the test fiber left the animal's skin, the animal's withdrawal was also recorded as a pain response. Starting from 2 g, depending on whether the rats had any pain response, the test was changed into the next test intensity or the previous test intensity. A series of responses of the rats to different test intensities were recorded. […] Wherein, Xf was the logarithmic value of von Frey fiber used in the last test, and K value was the animal withdrawal reaction mode (recorded during the test), which was the value obtained after looking up the table according to the obtained sequence of “X” and “O”, δ=Mean of logarithmic difference between von Frey fibers used in the test.

μ opioid receptor (MOR) = target: T3, μ opioid receptor (MOR) (Homo sapiens, UniProt P35372); test: cell-based; conditions: HEK293 stably expressing μ opioid receptor, FLIPR calcium
T3 construct: host or cells: HEK293
T3 sequence (P35372 whole entry, species assumed): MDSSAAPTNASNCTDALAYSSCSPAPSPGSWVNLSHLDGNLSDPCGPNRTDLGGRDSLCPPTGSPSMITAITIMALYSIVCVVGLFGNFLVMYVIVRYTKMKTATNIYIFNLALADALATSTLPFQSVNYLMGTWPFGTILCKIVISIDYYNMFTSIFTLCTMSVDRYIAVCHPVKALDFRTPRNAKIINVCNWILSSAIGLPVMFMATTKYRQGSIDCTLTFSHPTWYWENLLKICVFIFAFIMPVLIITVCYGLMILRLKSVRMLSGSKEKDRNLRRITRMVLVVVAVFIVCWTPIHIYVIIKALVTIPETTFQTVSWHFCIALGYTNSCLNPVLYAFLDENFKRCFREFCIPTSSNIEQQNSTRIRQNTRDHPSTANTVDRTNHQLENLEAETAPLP

T2 sequence (P35372 whole entry): as the sequence (P35372 whole entry, species assumed) above
T1 sequence (P35372 whole entry): as the sequence (P35372 whole entry, species assumed) above

For Cc1cc(F)cnc1C1(CCNCc2ccccc2OC(F)(F)F)CCOC2(CCCC2)C1 (stereo not shown) [Example H10, (2-trifluoromethoxybenzyl)-[2-(9-(3-methyl-5-fluoropyridin-2-yl)-6-oxaspiro[4.5]decan-9-yl)ethyl]amine], the EC50 [1] was 2.89 nM, the Emax [2] was 3.7% and the “PCO2, 5 min before administration” value (SD rats; arterial blood, before administration) was 35.72 ± 1.88 mmHg. The “PCO2, 5 min after administration” value (SD rats; intravenous single dose 0.3 mg/kg (morphine 24 mg/kg), 5 min) was 37.48 ± 1.94 mmHg, the “PCO2, 30 min after administration” value (SD rats; intravenous single dose 0.3 mg/kg (morphine 24 mg/kg), 30 min) was 35.03 ± 1.89 mmHg and the “PCO2, 60 min after administration” value (SD rats; intravenous single dose 0.3 mg/kg (morphine 24 mg/kg), 60 min) was 36.27 ± 1.67 mmHg. The “PCO2, 120 min after administration” value (SD rats; intravenous single dose 0.3 mg/kg (morphine 24 mg/kg), 120 min) was 36.83 ± 1.85 mmHg, the “50% PWT, 30 min after administration” value ([3]; 30 min) was 8.05 ± 0.24 g and the “50% PWT, 60 min after administration” value ([3]; 60 min) was 7.59 ± 1.02 g. The EC50 (μ opioid receptor (MOR)) was 2.15 nM.

Source: patent US11072601B2, “μ-opioid receptor agonist and preparation method therefor and use thereof in field of medicine” (SHANGHAI SYNERGY PHARMACEUTICAL SCIENCES CO., LTD., priority 2017, dated 2021)
